Measurements: paper PMC7238036, “An Interspecies Molecular and Functional Study of Organic Cation Transporters at the Blood-Brain Barrier: From Rodents to Humans” (Pharmaceutics, 2020)

What was measured:
OCT1 and/or OCT2 = system: OCT1 and/or OCT2; parameters: method as in PMID 20477935; details: cited from earlier work
[1] = system: primary human brain microvascular endothelial cells (BMVECs)
Protocol: BMVECs were obtained from isolated human brain microvessels and cultured in petri dishes in the presence of puromycin (P0), to avoid contamination from other cell types. BMVECs were later used in astrocyte-conditioned culture media for protein extraction, or for the establishment of a human BBB model to conduct permeability assays.
After BMVECs amplification, cells were seeded on inserts (Transwell, Corning, ThermoFisher, Les Ulis, France). […] Permeability studies using radiolabeled [^3H]-L-Phenylalanine (~4 nM) or [^3H]-MPP^+ (~6 nM) were performed on BMVECs once the establishment of a good BBB model was verified.

BBB = details: cited from earlier work

Protocol for luminal BBB: Transport of [^3H]-MPP^+ at the luminal BBB was measured by in situ brain perfusion in mice and rats [22, 23, 24]. […] With this method, the vascular composition of the brain is totally substituted by an artificial fluid, whose constitution can be modified. Mice and rats were anesthetized with ketamine-xylazine mixture 140–8 mg kg^−1 and 80-10 mg kg^−1, respectively. A catheter was inserted into the right carotid artery after ligation of the appropriate vessels. Just before perfusion, the heart was cut. Perfusion started immediately at a constant flow rate of 2.5 mL min^−1, and 10 mL min^−1, in mouse and rat, respectively.
The fluid pH (pHe) was checked and adjusted with a digital pH-meter (± 0.05 pH-units) immediately before perfusion. […] The perfusion was terminated by decapitating the animal after 120 s. […]
The apparent tissue distribution volume (Vtissue, µL g^−1) was calculated as (Equation (2)): (2) Vtissue=Vtissue/Cperf where Xtissue (dpm g^−1) is the calculated brain amount of [^3H]-MPP^+ and Cperf (dpm µL^−1), its concentration in the perfusion fluid (Equation (3)): (3) Xtissue=Xtot−VvCperf where Xtot (dpm g^−1) is the total quantity of [^3H]-MPP^+ measured in the sample tissue.
The initial transport rate, also called brain clearance, expressed as a Kin (µL s^−1 g^−1), was calculated from (Equation (4)): (4) Kin=Vtissue/T where T is the perfusion time (s).

In the case of `CN1CC=C(c2ccccc2)CC1` [MPTP, 1-methyl-4-phenyl-1,2,3,6-tetrahydropyridine], the “share of MPTP brain uptake accounted for by OCT1 and/or OCT2” value (OCT1 and/or OCT2) is given as “more than 90%”.
In the case of `CC[N+](CC)(CC)CC` [TEA, Tetraethylammonium], the “effect of inhibitor on [3H]-MPP+ uptake, apical to basolateral” value ([1]; TEA 2 mM, [3H]-MPP+ ~6 nM, OCT1-3/MATE function) is listed as “did not produce any significant decrease”, the “effect of co-perfused inhibitor on [3H]-MPP+ brain extraction/clearance” value (luminal BBB; TEA 30 mM co-perfusion, all rat and mouse strains tested) is listed as “remained unaltered” and the “modification of [14C]-TEA brain transport” value (BBB; FVB Oct1−/− mice) is listed as “no modification”.
For `C[n+]1ccc(-c2ccccc2)cc1` [[^3H]-MPP^+, 1-methyl-4-phenylpyridinium], the “differences in basal [3H]-MPP+ brain transport between the selected mouse strains” value (luminal BBB; 2-month old mice, six strains) is given as “not evidenced” and the “modification of [3H]-MPP+ brain transport” value (BBB; FVB (wild-type, Oct1/2−/−, Oct3−/−) and Swiss mice (+/- TEA)) is given as “no modification”.
For `N[C@@H](Cc1c[nH]c2ccccc12)C(=O)O` [tryptophan], the “effect of inhibitor on [3H]-L-phenylalanine uptake, apical to basolateral (SLC7A5)” value ([1]; tryptophan 5 mM, [3H]-L-phenylalanine ~4 nM, n = 3, p < 0.05) was “significant decrease”.
